Measurements: PubChem BioAssay AID1259411 (Chemical Carcinogenesis Research Information System (CCRIS), 2018)
Active and inactive are the calls of the source. How the calls were made is not given here.

Tested on: rodent carcinogenicity bioassays, tumor incidence
Assay: CCRIS carcinogenicity studies
Outline: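 NCI-built, expert-reviewed records of carcinogenicity and related test outcomes (mutagenicity, tumor promotion/inhibition) compiled from published and report sources, historical span 1985-2011, not updated.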

## CCSC(=O)N(CC(C)C)CC(C)C
Species: Mouse, Strain/Sex: CD-1/Female (50/sex/group), Route: Oral, Dose: 0, 20, 80, 320 mg/kg/d in diet for 2 yrs, Dose: 0, 20, 80, 320 mg/kg/d in diet for 2 yrs
  carcinogen call: inactive; negative; probable purity of 97-98%
Species: Mouse, Strain/Sex: CD-1/Male (50/sex/group), Route: Oral, Dose: 0, 20, 80, 320 mg/kg/d in diet for 2 yrs, Dose: 0, 20, 80, 320 mg/kg/d in diet for 2 yrs
  carcinogen call: inactive; negative; probable purity of 97-98%
Species: Rat, Strain/Sex: Sprague-Dawley/Female (70/sex/group), Route: Oral, Dose: 0, 50, 100, 200, 400 mg/kg/d in diet for 12, 18, or 24 mo, Dose: 0, 50, 100, 200, 400 mg/kg/d in diet for 12, 18, or 24 mo
  carcinogen call: inactive; negative; probable purity of 97-98% (there were probably 10 animals in each inte
Species: Rat, Strain/Sex: Sprague-Dawley/Male (70/sex/group), Route: Oral, Dose: 0, 50, 100, 200, 400 mg/kg/d in diet for 12, 18, or 24 mo, Dose: 0, 50, 100, 200, 400 mg/kg/d in diet for 12, 18, or 24 mo
  carcinogen call: inactive; negative; probable purity of 97-98% (there were probably 10 animals in each inte

## O=C/C=C/c1ccccc1
Species: MOUSE, Strain/Sex: B6C3F1/MALE, FEMALE (50/GROUP), Route: ORAL, Dose: 0, 1000, 2100, 4100 PPM MICROENCAPSULATED IN DIET FOR 2 YR (STUDY DURATION: 2 YR), Dose: 0, 1000, 2100, 4100 PPM MICROENCAPSULATED IN DIET FOR 2 YR (STUDY DURATION: 2 YR), Tumor Site: Type of Lesion: NONE
  carcinogen call: inactive; negative
Species: RAT, Strain/Sex: F344/N/MALE, FEMALE (50/GROUP), Route: ORAL, Dose: 0, 1000, 2100, 4100 PPM MICROENCAPSULATED IN DIET FOR 2 YR (STUDY DURATION: 2 YR), Dose: 0, 1000, 2100, 4100 PPM MICROENCAPSULATED IN DIET FOR 2 YR (STUDY DURATION: 2 YR), Tumor Site: Type of Lesion: NONE
  carcinogen call: inactive; negative

## CCN(N=O)C(=O)NCCO
Species: RAT, Strain/Sex: F344/FEMALE, Route: INTRAVESICULAR, Dose: 0, 3.6 MG 2/WK FOR 30 WK (STUDY DURATION: LIFETIME), Tumor Site: Type of Lesion: BLADDER: TUMOR, BRAIN: TUMOR
  carcinogen call: active; positive
Species: RAT, Strain/Sex: F344/FEMALE, Route: ORAL, Dose: 0, 37, 74 MG/L IN DRINKING WATER 5 D/WK FOR 30 WK (STUDY DURATION: LIFETIME), Dose: 0, 37, 74 MG/L IN DRINKING WATER 5 D/WK FOR 30 WK (STUDY DURATION: LIFETIME), Tumor Site: Type of Lesion: BLADDER: TUMOR, MAMMARY GLAND: TUMOR, UTERUS: TUMOR, NERVOUS SYSTEM: TUMOR, SKIN: TUMOR, MOUTH: TUMOR, Tumor Site: Type of Lesion: BLADDER: TUMOR, MAMMARY GLAND: TUMOR, UTERUS: TUMOR, NERVOUS SYSTEM: TUMOR, SKIN: TUMOR, MOUTH: TUMOR
  carcinogen call: active; positive
Species: RAT, Strain/Sex: F344/MALE, Route: GAVAGE, Dose: 0, 3.6 MG IN 0.2 ML ETHYL ACETATE/CORN OIL (1:1) 2/WK FOR 31 WK (TOTAL DOSE: 223 MG) (STUDY DURATION: 80 WK), Tumor Site: Type of Lesion: LUNG: CARCINOMA, ADENOMA, BRAIN: TUMORS, THYROID: CARCINOMA OR ADENOMA, PERITONEUM: MESOTHELIOMA, ZYMBAL GLAND: CARCINOM, Tumor Site: Type of Lesion: LUNG: CARCINOMA, ADENOMA, BRAIN: TUMORS, THYROID: CARCINOMA OR ADENOMA, PERITONEUM: MESOTHELIOMA, ZYMBAL GLAND: CARCINOM
  carcinogen call: active; positive
Species: RAT, Strain/Sex: F344/MALE, Route: ORAL, Dose: 0, 37, 74 MG/L IN DRINKING WATER 5 D/WK FOR 30 WK (STUDY DURATION: LIFETIME), Dose: 0, 37, 74 MG/L IN DRINKING WATER 5 D/WK FOR 30 WK (STUDY DURATION: LIFETIME), Tumor Site: Type of Lesion: LUNG: TUMOR, BLADDER: TUMOR, MESOTHELIUM: TUMOR, NERVOUS SYSTEM: TUMOR, SKIN: TUMOR, Tumor Site: Type of Lesion: LUNG: TUMOR, BLADDER: TUMOR, MESOTHELIUM: TUMOR, NERVOUS SYSTEM: TUMOR, SKIN: TUMOR
  carcinogen call: active; positive

## COc1cc2c(c3c1c(=O)c1ccccc1n3C)C=CC(C)(C)O2
Species: RAT, Strain/Sex: SPRAGUE-DAWLEY/FEMALE, Route: INTRAPERITONEAL, Dose: 0, 3.75, 7.5, 15 MG/KG FOR 52 WK (STUDY DURATION: 80-82 WK), Dose: 0, 3.75, 7.5, 15 MG/KG FOR 52 WK (STUDY DURATION: 80-82 WK), Tumor Site: Type of Lesion: MAMMARY GLAND: FIBROADENOMA, PERITONEAL CAVITY: SARCOMA OR FIBROSARCOMA OR MESOTHELIOMA
  carcinogen call: active; positive
Species: RAT, Strain/Sex: SPRAGUE-DAWLEY/MALE, Route: INTRAPERITONEAL, Dose: 0, 3.75, 7.5, 15 MG/KG FOR 51-52 WK (STUDY DURATION: 51-82 WK), Dose: 0, 3.75, 7.5, 15 MG/KG FOR 51-52 WK (STUDY DURATION: 51-82 WK), Tumor Site: Type of Lesion: MUSCULOSKELETAL SYSTEM: OSTEOSARCOMA, PERITONEAL CAVITY: SARCOMA OR FIBROSARCOMA OR MESOTHELIOMA
  carcinogen call: active; positive

## Oc1ccc(-c2c(Cl)cc(Cl)cc2Cl)cc1
Species: MOUSE, Strain/Sex: BALB/CCRGL/FEMALE, Route: SUBCUTANEOUS, Dose: 20 UG DAILY FOR 5 D BEGINNING 16 HR AFTER BIRTH (STUDY DURATION: 20 MO), Tumor Site: Type of Lesion: MAMMARY GLAND: CARCINOMA (5/33), CERVICOVAGINAL TRACT: CARCINOMA (2/33), LUNG TUMORS (3/33), Tumor Site: Type of Lesion: MAMMARY GLAND: CARCINOMA (5/33), CERVICOVAGINAL TRACT: CARCINOMA (2/33), LUNG TUMORS (3/33)
  carcinogen call: active; positive; (statistically significant for total number of tumors)
Species: MOUSE, Strain/Sex: BALB/CCRGL/FEMALE, Route: SUBCUTANEOUS, Dose: 200 UG DAILY FOR 5 D BEGINNING 16 HR AFTER BIRTH (STUDY DURATION: 20 MO), Tumor Site: Type of Lesion: CERVICOVAGINAL TRACT: CARCINOMA (10/22)
  carcinogen call: active; positive

## O=P1(N(CCCl)CCCl)NCCCO1 (stereo not given)
Species: FISH, Strain/Sex: SHASTA RAINBOW TROUT/MALE, FEMALE, Route: ORAL, Dose: 0, 200 PPM IN DIET FOR 18 MO (STUDY DURATION: 18 MO)
  carcinogen call: inactive; negative
Species: HUMAN, Route: ORAL, Tumor Site: Type of Lesion: URINARY BLADDER
  carcinogen call: active; positive
Species: MOUSE, Strain/Sex: NMRI/FEMALE, Route: SUBCUTANEOUS, Dose: 0, 13, 26 MG/KG IN SALINE 1/WK FOR LIFETIME (STUDY DURATION: LIFETIME), Dose: 0, 13, 26 MG/KG IN SALINE 1/WK FOR LIFETIME (STUDY DURATION: LIFETIME), Tumor Site: Type of Lesion: LYMPHATIC SYSTEM: MALIGNANT LEUKEMIA
  carcinogen call: active; positive
Species: MOUSE, Strain/Sex: NMRI/FEMALE, Route: SUBCUTANEOUS, Dose: 26 MG/KG 1/WK FOR 52 WK, Tumor Site: Type of Lesion: MAMMARY GLAND: CARCINOMA, MULTIPLE SITES: CARCINOMA, SARCOMA
  carcinogen call: active; positive
Species: RAT, Strain/Sex: BR46/MALE, Route: INTRAVENOUS, Dose: 15 MG/KG 1/WK OR 5 DOSES OF 33 MG/KG EVERY 2 WK, Tumor Site: Type of Lesion: MULTIPLE SITES
  carcinogen call: active; positive
Species: RAT, Strain/Sex: SPRAGUE-DAWLEY/MALE,FEMALE, Route: ORAL, Dose: 0.31, 0.63, 1.25, 2.5 MG/KG 5/WK, Dose: 0.31, 0.63, 1.25, 2.5 MG/KG 5/WK, Tumor Site: Type of Lesion: URINARY BLADDER: PAPILLOMA, TRANSITIONAL CELL CARCINOMA
  carcinogen call: active; positive
Species: RAT, Strain/Sex: SPRAGUE-DAWLEY/MALE, Route: INTRAVENOUS, Dose: 13 MG/KG 1/WK, Tumor Site: Type of Lesion: MULTIPLE SITES
  carcinogen call: active; positive

## COc1cc(OC)nc(Oc2cccc(Oc3nc(OC)cc(OC)n3)c2C(=O)O)n1
Species: Mouse, Strain/Sex: B6C3F1/Female (50/sex/dose), Route: Oral, Dose: 0, 10, 100, 2500, 5000 ppm in diet for 104 wk, Dose: 0, 10, 100, 2500, 5000 ppm in diet for 104 wk
  carcinogen call: inactive; negative; purity 98.4%; interim sacrifices of 10 additional animals/sex/dose at
Species: Mouse, Strain/Sex: B6C3F1/Male (50/sex/dose), Route: Oral, Dose: 0, 10, 100, 2500, 5000 ppm in diet for 104 wk, Dose: 0, 10, 100, 2500, 5000 ppm in diet for 104 wk
  carcinogen call: inactive; negative; purity 98.4%; interim sacrifices of 10 additional animals/sex/dose at
Species: Rat, Strain/Sex: F344/Female (48/sex/dose), Route: Oral, Dose: 0, 20, 200, 3000, 10000 ppm in diet for 104 wk, Dose: 0, 20, 200, 3000, 10000 ppm in diet for 104 wk
  carcinogen call: inactive; negative; purity 97.2%; interim sacrifices of 10 additional animals/sex/dose at
Species: Rat, Strain/Sex: F344/Male (48/sex/dose), Route: Oral, Dose: 0, 20, 200, 3500, 7000 ppm in diet for 104 wk, Dose: 0, 20, 200, 3500, 7000 ppm in diet for 104 wk
  carcinogen call: inactive; negative; purity 97.2%; interim sacrifices of 10 additional animals/sex/dose at
